From US20250092081A1, “USE OF GLYCOSYLTRASNFERASE INHIBITORS FOR TREATING CANCER” (CALIFORNIA INSTITUTE OF TECHNOLOGY, priority 2020, published 2025) come the findings set out here.

Values after ≈ are worked out from the molar mass of the structure shown. Some results are limits rather than exact numbers.

One data set has as its system C. difficile spores. Kind of data set: Spore viability testing. In kind it is cell-based. Conditions: for Viability of C. difficile spores: x2 MIC, 24 hours, CFU on taurocholate agar; for Inhibition of C. difficile spore germination: x5 MIC.
The next data set relates to C. difficile ATCC43596. In words: Minimum inhibitory concentration assay. Conditions: for C. difficile ATCC43596 MIC: 48 h, 37° C., anaerobic.
A further data set deals with sheep blood. In words: Hemolysis of sheep blood. The format is cell-based. The following applies: Ovis aries.
The test system of data set [1] is AsPc-1 (pancreatic cancer) cells. In words: Synergistic assay (checkerboard) on AsPc-1 cells. The format is cell-based. Here is the method:
Synergistic Assay. The synergistic or antagonistic activities of 11 with other cancer drugs on AsPc-1 (pancreatic cancer) cells were assessed in vitro via micro dilution broth checkerboard technique previously reported. The FIC index was calculated according to the following equation. ΣFIC=FICA+FICB=CA/MICA+CB/MICB where MICA and MICB are MIC of drugs A and B, CA and CB are the concentrations of drugs A and B used in combination. In these interaction studies, ΣFIC of less than 0.5 represents synergistic activity.
These experiments were performed in the same manner as those of Example 8.

Data set [2] is described as follows: Cytotoxicity MTT assay, L12210. The format is cell-based. Conditions: mouse, L12210 cells. Here is the method:
(§1) Selected molecules were tested for cytotoxicity (IC50) in cancer and healthy cells via a MTT colorimetric assay.
(§2) Each cell was cultured in recommended medium by ATCC, and the IC50 data were obtained with each cell line.

Data set [3] is described as follows: Cytotoxicity MTT assay, KB. In kind it is cell-based. Conditions: human, KB cells. Here is the method:
as §1, §2
(Tetrazolium dyes change colour on reduction, which living cells bring about.)

Data set [4] in a line: Cytotoxicity MTT assay, LoVo. The format is cell-based. The following applies: human, LoVo cells. Here is the method:
as §1, §2

The nature of data set [5]: Cytotoxicity MTT assay, SK-OV-3. In kind it is cell-based. Conditions: human, SK-OV-3 cells. Here is the method: as §1, §2
Data set [6] is described as follows: Cytotoxicity MTT assay, MDA-MB-435S. The format is cell-based. The following applies: human, MDA-MB-435S cells. Here is the method:
as §1, §2

Data set [7] is described as follows: Cytotoxicity MTT assay, AsPc-1. The following applies: human, AsPc-1 cells. In kind it is cell-based. Here is the method:
as §1, §2

Data set [8] can be described thus: Cytotoxicity MTT assay, Panc-1. In kind it is cell-based. The following applies: human, Panc-1 cells. Here is the method:
as §1, §2

The nature of data set [9]: Cytotoxicity MTT assay, HPAF-II. In kind it is cell-based. The following applies: human, HPAF-II cells. Here is the method:
as §1, §2

The term IC50 denotes the concentration that gives 50% inhibition. A higher IC50 goes with weaker potency in that assay.

Regarding `CCCCCCCc1ccc(NC(=O)CCCN(C)[C@H](C(N)=O)[C@H](OC2O[C@H](CN)[C@@H](O)[C@H]2O)[C@H]2O[C@@H](n3ccc(=O)[nH]c3=O)C(O)[C@H]2O)cc1` (some centres unmarked) [Compound 9], the “Viability of C. difficile spores” value with C. difficile spores is “caused loss of viability”. The “anti-C. difficile growth inhibitory activity (in words)” value in the data set with C. difficile ATCC43596 is given as “weak”.

With `CCCCCCCc1ccc(NC(=O)CCCN[C@H](C(N)=O)[C@H](OC2O[C@H](CN)[C@@H](O)[C@H]2O)[C@H]2O[C@@H](n3ccc(=O)[nH]c3=O)C(O)[C@H]2O)cc1` (some centres unmarked) [Compound 10], the “Viability of C. difficile spores” value in the data set on C. difficile spores was “caused loss of viability”. Moreover, 70 µM corresponded to half-maximal inhibition in the data set with sheep blood (IC50).

With `CN(CCCC(=O)NCc1ccc(N2CCC(Oc3ccc(C(F)(F)F)cc3)CC2)cc1)[C@H](C(N)=O)[C@H](O[C@@H]1O[C@H](CN)[C@@H](O)[C@H]1O)[C@H]1O[C@@H](n2ccc(=O)[nH]c2=O)[C@H](O)C1O` (some centres unmarked) [Compound 12], the “anti-C. difficile growth inhibitory activity (in words)” value in the data set with C. difficile ATCC43596 was “weak”.

Consider `CN(CCCN)[C@H](C(=O)O)[C@H](O[C@@H]1O[C@H](CN)[C@@H](O)[C@H]1O)[C@H]1O[C@@H](n2ccc(=O)[nH]c2=O)[C@H](O)[C@@H]1O` [FR-900493 (1), FR-900493], for which the “C. difficile ATCC43596 MIC” value with C. difficile ATCC43596 is more than 50 mg/L.

Regarding `Nc1ccn([C@@H]2O[C@H](CO)[C@@H](O)C2(F)F)c(=O)n1` [Gemcitabine, reference compound], in data set [1] (AsPc-1 cells, Table 6), the “IC50 A / IC50 B (drug alone)” value worked out at 0.39 µM. The “CA and CB (concentrations of drugs A and B used in combination)” value in data set [1] (AsPc-1 cells, combination of 11 (A) and Gemcitabine (B), per entry) was 0.37 µM.

As for `CC(=O)O[C@H]1C(=O)[C@@]2(C)[C@H]([C@H](OC(=O)c3ccccc3)[C@]3(O)C[C@H](OC(=O)[C@H](O)[C@@H](NC(=O)c4ccccc4)c4ccccc4)C(C)=C1C3(C)C)[C@]1(OC(C)=O)CO[C@@H]1C[C@@H]2O` [Taxol, Paclitaxel, reference compound], the IC50 came out at 0.55 µM in [2]; 0.79 µM in data set [3]; 0.057 µM in data set [4]; 1.08 µM in [5]; 0.11 µM in [6]; 0.19 µM in data set [7]. In addition, the IC50 in [8] and in data set [9] was 0.02 µM each time. The “IC50 A / IC50 B (drug alone)” value in data set [1] (AsPc-1 cells, Table 5) was determined as 0.55 µM. In addition, in [1] (combined with 11), the “lowest Taxol concentration to kill AsPc-1 cells when combined with 11” value was determined as 7 nM.

In the case of `CC(=O)NC[C@H]1CN(c2ccc(N3CCOCC3)c(F)c2)C(=O)O1` [linezolid, reference compound], the “Inhibition of C. difficile spore germination” value (“Inhibition” for short) in the data set on C. difficile spores is given as “did not inhibit the spore germination”.

Regarding `Cc1ncc([N+](=O)[O-])n1CCO` [metronidazole, reference compound], the “Inhibition” value in the data set with C. difficile spores is “did not inhibit the spore germination”.

Regarding `CN[C@H](CC(C)C)C(=O)N[C@H]1C(=O)N[C@@H](CC(N)=O)C(=O)N[C@H]2C(=O)N[C@H]3C(=O)N[C@H](C(=O)N[C@H](C(=O)O)c4cc(O)cc(O)c4-c4cc3ccc4O)[C@H](O)c3ccc(c(Cl)c3)Oc3cc2cc(c3O[C@@H]2O[C@H](CO)[C@@H](O)[C@H](O)[C@H]2O[C@H]2C[C@](C)(N)[C@H](O)[C@H](C)O2)Oc2ccc(cc2Cl)[C@H]1O` [vancomycin, reference compound], in the data set with C. difficile spores, the “Inhibition” value was “did not inhibit the spore germination”. The “MIC against C. difficile (reference antibiotic)” value in the data set on C. difficile ATCC43596 came out at 2.5 mg/L (≈ 1.73 µM).

Turning to Tunicamycin, the “C. difficile ATCC43596 MIC” value in the data set on C. difficile ATCC43596 was more than 50 mg/L.
